Usually IC50 stands for the point on the concentration scale where inhibition reaches its midpoint.

Structures are written as SMILES. Active and inactive are the calls of the source. The rule behind the calls is not given here. Where only a bound is given, the exact number is not on record here.

Data set [1] deals with MCF7. The experiment in a line: Antiproliferative activity against human MCF7 cells. In kind it is functional, cell-based.
A further data set concerns ACHN. Kind of data set: Antiproliferative activity against human ACHN cells. In kind it is functional, cell-based.
A further data set deals with Tubulin. Kind of data set: Inhibition of tubulin polymerization (unknown origin). Type of data set: protein-complex assay, Homo sapiens.
Data set [2] deals with MCF7. Kind of data set: Antiproliferative activity against human MCF7 cells assessed as cell growth inhibition incubated for 48 hrs by MTT assay. In kind it is functional, cell-based. Particulars: for IC50: Homo sapiens, MCF7, 48 h. (In general: Tetrazolium dyes change colour on reduction, which living cells bring about.)
The nature of data set [3]: Selectivity index, ratio of IC50 for antiproliferative activity against human MCF-10A cells to IC50 for antiproliferative activity against human MCF7 cells. As to conditions: MCF-10A cells and MCF7 cells, read-out: Ratio IC50. Type of data set: toxicity, cell-based.
Data set [4] deals with MCF7. The experiment in a line: Antiproliferative activity against human MCF7 cells assessed as reduction in number of colonies incubated for 48 hrs by crystal violet staining based analysis. In kind it is functional, cell-based.
The nature of data set [5]: Antiproliferative activity against human MCF-10A cells assessed as cell growth inhibition incubated for 48 hrs by MTT assay. Type of data set: toxicity, cell-based.
Data set [6] deals with MCF7. The experiment in a line: Inhibition of cell migration in human MCF7 cells assessed as reduction in migration rate incubated upto 48 hrs by scratch wound healing assay. In kind it is functional, cell-based.
Data set [7] concerns A549. The experiment in a line: Antiproliferative activity against human A549 cells assessed as cell growth inhibition incubated for 48 hrs by MTT assay. Type of data set: functional, cell-based. Particulars: A549, 48 h.
Data set [8] in a line: Antiproliferative activity against human MCF-10A cells assessed as cell viability incubated for 48 hrs by MTT assay relative to control. Type of data set: toxicity, cell-based. On the set-up: concentration or dose not given beside the values. Particulars: read-out: Activity.
Data set [9] relates to HCT-116. Kind of data set: Antiproliferative activity against human HCT-116 cells assessed as cell growth inhibition incubated for 48 hrs by MTT assay. Type of data set: functional, cell-based. Particulars: HCT-116, 48 h.
The next data set has as its system NCI-H460. The experiment in a line: Antiproliferative activity against human NCI-H460 cells. Type of data set: functional, cell-based.
The next data set deals with SW480. The experiment in a line: Antiproliferative activity against human SW480 cells. In kind it is functional, cell-based.
In a further data set the test system is MGC-803. The experiment in a line: Antiproliferative activity against human MGC-803 cells. In kind it is functional, cell-based.
Data set [10] has as its system A549. Kind of data set: Antiproliferative activity against human A549 cells. Type of data set: functional, cell-based.
Another data set concerns HeLa. The experiment in a line: Antiproliferative activity against human HeLa cells. In kind it is functional, cell-based.
In a further data set the test system is HL-60. The experiment in a line: Antiproliferative activity against human HL-60 cells. In kind it is functional, cell-based.
Data set [11] concerns HCT-116. Kind of data set: Antiproliferative activity against human HCT-116 cells. Type of data set: functional, cell-based.
A further data set concerns MDA-MB-435. Kind of data set: Antiproliferative activity against human MDA-MB-435 cells. Type of data set: functional, cell-based.

With `CN1c2ccccc2C(=O)N2CCc3c([nH]c4ccc(Cl)cc34)C21` (centres undefined), the IC50 with MCF7 [1] and in the data set with ACHN was 1000 nM each time.

The compound `COc1cc(C2=NN(C(N)=O)C(c3cn(C)c4ccc(Br)cc34)C2)cc(OC)c1OC` (centres undefined) gave a 50% inhibitory concentration (IC50) against Tubulin of 2120 nM.

In the case of `O=C(O)c1ccccc1C(=O)NCCc1c(-c2cc(=O)n3ccccc3n2)[nH]c2ccccc12`, the IC50 in the data set on MCF7 [2] is over 20 µM.

The compound `O=c1cc(-c2ccc(Cl)cc2)nc2ccccn12` displayed a half-maximal inhibitory concentration (IC50) in the data set on MCF7 [1] of 1800 nM.

Turning to `O=C(NCCc1c(-c2cc(=O)n3ccccc3n2)[nH]c2ccccc12)c1ccc(Cl)cc1`, the IC50 in the data set on MCF7 [2] is over 20 µM.

In the case of `COc1ccc2c(c1)c(CCN1C(=O)c3ccccc3C1=O)c(-c1cc(=O)n3ccccc3n1)n2C(=O)OC(C)(C)C`, in the data set with MCF7 [2], the concentration for half-maximal inhibition (IC50) is over 20 µM.

Take `COc1ccc(C(=O)NCCc2c(-c3cc(=O)n4ccccc4n3)n(C(=O)OC(C)(C)C)c3ccccc23)cc1`: the results for the IC50 in the data set on MCF7 [2], in the data set with A549 [7] and in the data set on HCT-116 [9] were 7.7 µM, 18.4 µM and 11 µM, respectively. Moreover, the selectivity ratio in data set [3] was over 3.2. Moreover, in the data set with MCF7 [4], the outcome was Active. In addition, in data set [5], the half-inhibitory concentration (IC50) at 48 h is over 20 µM. Also, in the data set with MCF7 [6], the inhibition result is “Active”. Moreover, the viability at 48 h in [8] came out at 61.6%.

On to `O=C(NCCc1c[nH]c2ccccc12)c1ccc(-c2ccccc2)cc1`, for which the IC50 in the data set on NCI-H460 is 2000 nM.

For the compound `CN1c2ccccc2C(=O)N2CCc3c([nH]c4ccccc34)C21` (centres undefined), the half-maximal inhibitory concentration (IC50) was 10 µM in the data set on SW480, 12 µM in the data set with MGC-803 and 1300 nM in the data set with A549 [10].

Turning to `COc1ccc2[nH]c(-c3cc(=O)n4ccccc4n3)c(CCNC(=O)c3ccc(Cl)cc3)c2c1`, the IC50 in the data set with MCF7 [2] was over 20 µM.

In turn, `O=c1c2cc(Cl)ccc2nc2n1CCc1c-2[nH]c2ccccc12` yielded an IC50 in the data set on HeLa of 7 µM.

`COc1ccc2c(c1)c(CCNC(=O)c1ccc(Cl)cc1)c(-c1cc(=O)n3ccccc3n1)n2C(=O)OC(C)(C)C`: the values for the half-inhibitory concentration (IC50) in the data set on MCF7 [2], with A549 [7] and in the data set on HCT-116 [9] were 14 µM, 20 µM and 8.55 µM, respectively. Moreover, the selectivity ratio in data set [3] is over 2.25. The half-maximal inhibitory concentration (IC50) at 48 h in data set [5] is over 20 µM. In addition, in data set [8], the viability at 48 h stood at 78.6%.

Take `COc1cc(C(=O)NCCc2c(-c3cc(=O)n4ccccc4n3)[nH]c3ccccc23)cc(OC)c1OC`: the concentration for half-maximal inhibition (IC50) in the data set on MCF7 [2] is over 20 µM.

`COc1ccc2[nH]c(-c3cc(=O)n4ccccc4n3)c(CCN3C(=O)c4ccccc4C3=O)c2c1`: the half-maximal inhibitory concentration (IC50) with MCF7 [2] was over 20 µM.

In the case of `COc1ccc2[nH]c(-c3cc(=O)n4ccccc4n3)c(CCNC(=O)c3cc(OC)c(OC)c(OC)c3)c2c1`, the half-maximal inhibitory concentration (IC50) in the data set with MCF7 [2] was over 20 µM.

With `CC(C)(C)OC(=O)n1c(-c2cc(=O)n3ccccc3n2)c(CCNC(=O)c2ccc(Cl)cc2)c2ccccc21`, the half-inhibitory concentration (IC50) is 15.8 µM with MCF7 [2], over 20 µM in the data set on A549 [7] and over 20 µM in the data set with HCT-116 [9]. In data set [3], the selectivity ratio is over 2.11. Moreover, the IC50 at 48 h in [5] was over 20 µM. The viability at 48 h in data set [8] is 83.4%.

As for `CC(C)(C)OC(=O)n1c(-c2cc(=O)n3ccccc3n2)c(CCN2C(=O)c3ccccc3C2=O)c2ccccc21`, the 50% inhibitory concentration (IC50) with MCF7 [2] was over 20 µM.

`O=c1c2ccccc2nc2n1CCc1c-2[nH]c2c(Cl)c(Cl)ccc12`: the IC50 with HL-60 is 150 nM.

For `O=c1[nH]cc(F)c(=O)[nH]1` [FLUOROURACIL], in the data set with MCF7 [2] (time 48 hrs), the IC5 came to 6.5 µM. Moreover, the selectivity ratio in [3] was determined as 3. For the same compound, in data set [5], the IC50 at 48 h is 19.5 µM. The 50% inhibitory concentration (IC50) in the data set on A549 [7] and in the data set on HCT-116 [9] was over 20 µM in each case. In data set [8], the viability at 48 h came to 50%.

As to `O=C1c2ccccc2C(=O)N1CCc1c(-c2cc(=O)n3ccccc3n2)[nH]c2ccccc12`, the IC50 with MCF7 [2] is over 20 µM.

With `O=C1c2cc(Cl)ccc2SC2c3[nH]c4ccc(O)cc4c3CCN12` (centres undefined), the IC50 with HCT-116 [11] and with MDA-MB-435 was under 3 nM throughout.

Consider `COc1ccc(C(=O)NCCc2c(-c3cc(=O)n4ccccc4n3)[nH]c3ccc(OC)cc23)cc1`, for which the half-maximal inhibitory concentration (IC50) with MCF7 [2] was over 20 µM.

With `O=c1c2ccccc2nc2n1CCc1c-2[nH]c2ccccc12` [RUTAECARPINE], the half-maximal inhibitory concentration (IC50) was over 20 µM with MCF7 [2], 26 µM with HeLa and over 20 µM in the data set with A549 [7]. In addition, the selectivity ratio in [3] worked out at 1.2. In addition, the IC50 at 48 h in [5] was over 20 µM. The viability at 48 h in [8] is 60.2%.

Source of the values: ChEMBL document CHEMBL5550179, “Rutaecarpine-inspired scaffold-hopping strategy and Ullmann cross-coupling based synthetic approach: Identification of pyridopyrimidinone-indole based novel anticancer chemotypes” (Bioorg Med Chem, 2024).
